{"source": "paper PMC9127750", "about": "“Structure-based design of CDC42 effector interaction inhibitors for the treatment of cancer” (Cell reports, 2022)", "system": "WM3248 melanoma cells, 486 antibodies", "experiment": "Reverse phase protein arrays (RPPA)", "format": "cell-based, Human", "from_the_text": "Pellets were snap frozen in liquid nitrogen and shipped to MD Anderson Cancer Center core RPPA facility for RPPA analysis (Table S5). Three biological replicates for each sample were generated.\nNomenclatures on the RPPA heatmaps: name_of_antibody.species_of_antibody.status_of_antibody. V - antibody validated; C - validation of antibody in progress; Q - antibody nonspecific; E – under evaluation; antibodies raised in M - mouse, G - goat, R - rabbit, or T - rat.", "key": {"[1]": {"settings": "level 20 normalized to 0, mean of 3"}, "[2]": {"settings": "level 20 normalized to 0, single replicates"}}, "note": "Values joined by “and” are separate entries in the source; they are usually repeats but may differ in a detail not shown here. Equal values may be shown once."}
{"smiles": "CN(C)c1cccc(Nc2cc(-c3ccccc3)nc(C3CCNCC3)n2)c1", "note": "[ARN22089, N1,N1-dimethyl-N3-(6-phenyl-2-(piperidin-4-yl)pyrimidin-4-yl)benzene-1,3-diamine]", "values": [{"measurement": "MEK1_pS217_S221.R.V Norm_10", "setting": "level 10 vs 0, replicates", "result": "0.653 and 1.014"}, {"measurement": "MEK2.R.V Norm_10", "setting": "level 10 vs 0, replicates", "result": 0.958}, {"measurement": "MERIT40.R.C Norm_10", "setting": "level 10 vs 0, replicates", "result": "0.835 and 0.967 and 1.096"}, {"measurement": "MERIT40_pS29.R.V Norm_10", "setting": "level 10 vs 0, replicates", "result": "1.054 and 0.952 and 1.159"}, {"measurement": "METTL3.R.V Norm_10", "setting": "level 10 vs 0, replicates", "result": "0.943 and 1.355 and 1.161"}, {"measurement": "MIF.R.C Norm_10", "setting": "level 10 vs 0, replicates", "result": "0.886 and 1.129 and 0.994"}, {"measurement": "MIG6.R.V Norm_10", "setting": "level 10 vs 0, replicates", "result": "0.854 and 1.033 and 0.924"}, {"measurement": "MITF.R.V Norm_10", "setting": "level 10 vs 0, replicates", "result": "1.203 and 1.053"}, {"measurement": "MLH1.M.V Norm_10", "setting": "level 10 vs 0, replicates", "result": "0.862 and 0.921 and 1.113"}, {"measurement": "MLKL.R.V Norm_10", "setting": "level 10 vs 0, replicates", "result": "0.834 and 0.796"}, {"measurement": "MMP2.R.V Norm_10", "setting": "level 10 vs 0, replicates", "result": "0.901 and 0.975 and 0.933"}, {"measurement": "MMP14.R.V Norm_10", "setting": "level 10 vs 0, replicates", "result": "1.370 and 1.223 and 1.159"}, {"measurement": "MR1.M.C Norm_10", "setting": "level 10 vs 0, replicates", "result": "0.964 and 0.975"}, {"measurement": "MRAP.R.C Norm_10", "setting": "level 10 vs 0, replicates", "result": "1.105 and 1.029 and 0.983"}, {"measurement": "MSH2.R.C Norm_10", "setting": "level 10 vs 0, replicates", "result": "0.935 and 1.122"}, {"measurement": "MSH6.R.C Norm_10", "setting": "level 10 vs 0, replicates", "result": "1.082 and 1.155"}, {"measurement": "MSI2.R.C Norm_10", "setting": "level 10 vs 0, replicates", "result": "1.122 and 1.158 and 0.948"}, {"measurement": "MTCO1.M.V Norm_10", "setting": "level 10 vs 0, replicates", "result": "0.961 and 1.134 and 1.079"}, {"measurement": "MTSS1.M.C Norm_10", "setting": "level 10 vs 0, replicates", "result": "0.883 and 1.065"}, {"measurement": "Mcl.1.R.V Norm_10", "setting": "level 10 vs 0, replicates", "result": "0.859 and 0.752 and 0.834"}, {"measurement": "MelanA.R.C Norm_10", "setting": "level 10 vs 0, replicates", "result": "0.771 and 0.904 and 1.047"}, {"measurement": "Melanoma.gp100.R.C Norm_10", "setting": "level 10 vs 0, replicates", "result": "0.993 and 0.873 and 0.988"}, {"measurement": "Merlin.R.C Norm_10", "setting": "level 10 vs 0, replicates", "result": "1.228 and 1.105"}, {"measurement": "Midkine.R.V Norm_10", "setting": "level 10 vs 0, replicates", "result": "0.894 and 0.939 and 0.959"}, {"measurement": "Mitofusin.1.R.V Norm_10", "setting": "level 10 vs 0, replicates", "result": "0.986 and 0.948 and 0.964"}, {"measurement": "Mitofusin.2.R.V Norm_10", "setting": "level 10 vs 0, replicates", "result": "0.858 and 0.863 and 1.224"}, {"measurement": "Mnk1.R.V Norm_10", "setting": "level 10 vs 0, replicates", "result": "0.920 and 0.841 and 0.963"}, {"measurement": "mTOR.R.V Norm_10", "setting": "level 10 vs 0, replicates", "result": "0.942 and 0.902 and 1.003"}, {"measurement": "mTOR_pS2448.R.C Norm_10", "setting": "level 10 vs 0, replicates", "result": "1.029 and 0.921 and 1.128"}, {"measurement": "TSC1.R.C Norm_20 Average", "setting": "[1]", "result": 0.903}, {"measurement": "TTF1.R.V Norm_20 Average", "setting": "[1]", "result": 1.162}, {"measurement": "TUFM.R.V Norm_20 Average", "setting": "[1]", "result": 0.835}, {"measurement": "Tuberin.R.V Norm_20 Average", "setting": "[1]", "result": 1.019}, {"measurement": "Tuberin_pT1462.R.V Norm_20 Average", "setting": "[1]", "result": 1.096}, {"measurement": "Twist.M.C Norm_20 Average", "setting": "[1]", "result": 0.916}, {"measurement": "Tyro3.R.V Norm_20 Average", "setting": "[1]", "result": 1.270}, {"measurement": "U.Histone.H2B.R.C Norm_20 Average", "setting": "[1]", "result": 2.670}, {"measurement": "UBQLN4.M.C Norm_20 Average", "setting": "[1]", "result": 0.936}, {"measurement": "UGT1A.M.V Norm_20 Average", "setting": "[1]", "result": 0.975}, {"measurement": "ULK1_pS757.R.C Norm_20 Average", "setting": "[1]", "result": 0.888}, {"measurement": "UVRAG.R.C Norm_20 Average", "setting": "[1]", "result": 1.003}, {"measurement": "VASP.R.V Norm_20 Average", "setting": "[1]", "result": 0.936}, {"measurement": "VAV1.R.C Norm_20 Average", "setting": "[1]", "result": 1.004}, {"measurement": "VEGFR.2.R.V Norm_20 Average", "setting": "[1]", "result": 0.966}, {"measurement": "VEGFR.2_pY1175.R.C Norm_20 Average", "setting": "[1]", "result": 0.978}, {"measurement": "VHL.EPPK1.M.C Norm_20 Average", "setting": "[1]", "result": 0.882}, {"measurement": "VHL.R.C Norm_20 Average", "setting": "[1]", "result": 0.906}, {"measurement": "Vinculin.M.V Norm_20 Average", "setting": "[1]", "result": 0.932}, {"measurement": "WIPI1.R.C Norm_20 Average", "setting": "[1]", "result": 1.388}, {"measurement": "WIPI2.R.C Norm_20 Average", "setting": "[1]", "result": 1.126}, {"measurement": "WTAP.R.V Norm_20 Average", "setting": "[1]", "result": 1.278}, {"measurement": "Wee1.R.C Norm_20 Average", "setting": "[1]", "result": 0.913}, {"measurement": "Wee1_pS642.R.C Norm_20 Average", "setting": "[1]", "result": 0.939}, {"measurement": "XIAP.R.C Norm_20 Average", "setting": "[1]", "result": 0.959}, {"measurement": "XPA.M.V Norm_20 Average", "setting": "[1]", "result": 0.905}, {"measurement": "XPF.R.C Norm_20 Average", "setting": "[1]", "result": 0.890}, {"measurement": "YAP.R.C Norm_20 Average", "setting": "[1]", "result": 0.956}, {"measurement": "YAP_pS127.R.V Norm_20 Average", "setting": "[1]", "result": 1.018}, {"measurement": "YB1_pS102.R.V Norm_20 Average", "setting": "[1]", "result": 0.999}, {"measurement": "YES1.R.V Norm_20 Average", "setting": "[1]", "result": 0.970}, {"measurement": "YTHDF2.R.V Norm_20 Average", "setting": "[1]", "result": 1.210}, {"measurement": "YTHDF3.R.C Norm_20 Average", "setting": "[1]", "result": 1.032}, {"measurement": "ZAP.70.R.V Norm_20 Average", "setting": "[1]", "result": 0.888}, {"measurement": "ZEB1.R.V Norm_20 Average", "setting": "[1]", "result": 0.961}, {"measurement": "TSC1.R.C Norm_20_1 to Norm_20_3", "setting": "[2]", "result": "1.029 and 0.819 and 0.861"}, {"measurement": "TTF1.R.V Norm_20_1 to Norm_20_3", "setting": "[2]", "result": "1.129 and 1.026 and 1.331"}, {"measurement": "TUFM.R.V Norm_20_1 to Norm_20_3", "setting": "[2]", "result": "0.786 and 0.994 and 0.727"}, {"measurement": "Tuberin.R.V Norm_20_1 to Norm_20_3", "setting": "[2]", "result": "0.859 and 0.737 and 1.461"}, {"measurement": "Tuberin_pT1462.R.V Norm_20_1 to Norm_20_3", "setting": "[2]", "result": "1.032 and 1.164"}, {"measurement": "Twist.M.C Norm_20_1 to Norm_20_3", "setting": "[2]", "result": "0.837 and 0.972"}, {"measurement": "Tyro3.R.V Norm_20_1 to Norm_20_3", "setting": "[2]", "result": "1.252 and 1.345 and 1.211"}, {"measurement": "U.Histone.H2B.R.C Norm_20_1 to Norm_20_3", "setting": "[2]", "result": "1.699 and 5.734 and 0.577"}, {"measurement": "UBAC1.R.V Norm_20_1 to Norm_20_3", "setting": "[2]", "result": "1.032 and 1.010 and 1.218"}, {"measurement": "UBQLN4.M.C Norm_20_1 to Norm_20_3", "setting": "[2]", "result": "0.990 and 0.917 and 0.902"}, {"measurement": "UGT1A.M.V Norm_20_1 to Norm_20_3", "setting": "[2]", "result": "0.904 and 1.048 and 0.973"}, {"measurement": "ULK1_pS757.R.C Norm_20_1 to Norm_20_3", "setting": "[2]", "result": "0.939 and 0.770 and 0.955"}, {"measurement": "UQCRC2.M.C Norm_20_1 to Norm_20_3", "setting": "[2]", "result": "0.954 and 1.047 and 1.204"}, {"measurement": "UVRAG.R.C Norm_20_1 to Norm_20_3", "setting": "[2]", "result": "1.021 and 1.000 and 0.987"}, {"measurement": "VASP.R.V Norm_20_1 to Norm_20_3", "setting": "[2]", "result": "0.965 and 0.910 and 0.933"}, {"measurement": "VAV1.R.C Norm_20_1 to Norm_20_3", "setting": "[2]", "result": "1.081 and 0.961 and 0.970"}, {"measurement": "VEGFR.2.R.V Norm_20_1 to Norm_20_3", "setting": "[2]", "result": "0.959 and 0.914 and 1.026"}, {"measurement": "VEGFR.2_pY1175.R.C Norm_20_1 to Norm_20_3", "setting": "[2]", "result": "0.916 and 1.050 and 0.968"}]}
